Reference: patent US6737383B1, “Herbicidal oxadiazolidines” (priority 1999, dated 2004)

Assays:
bedstraw = experiment: Test B pre/postemergence bedstraw; assay type: in vivo, Galium aparine
Procedure, shortened: (§1)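 Herbicidal effect was estimated by eye on a ten-point control scale after plants spent twelve to sixteen days in a greenhouse following soil or foliar treatment. Foliar sprays targeted plants at one to four leaves; all doses were formulated in a non-phytotoxic solvent with surfactant.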

blackgrass = experiment: Test B pre/postemergence blackgrass; assay type: in vivo, Alopecurus myosuroides
Procedure, shortened: as §1

surinam grass = experiment: Test B pre/postemergence surinam grass; assay type: in vivo, Brachiaria decumbens
Procedure, shortened: as §1

cocklebur = experiment: Test B pre/postemergence cocklebur; assay type: in vivo, Xanthium strumarium
Procedure, shortened: as §1

corn = experiment: Test B pre/postemergence corn; assay type: in vivo, Zea mays
Procedure, shortened: as §1

crabgrass = experiment: Test B pre/postemergence crabgrass; assay type: in vivo, Digitaria sanguinalis
Procedure, shortened: as §1

giant foxtail = experiment: Test B pre/postemergence giant foxtail; assay type: in vivo, Setaria faberii
Procedure, shortened: as §1

morningglory = experiment: Test B pre/postemergence morningglory; assay type: in vivo, Ipomoea hederacea
Procedure, shortened: as §1

pigweed = experiment: Test B pre/postemergence pigweed; assay type: in vivo, Amaranthus retroflexus
Procedure, shortened: as §1

soybean = experiment: Test B pre/postemergence soybean; assay type: in vivo, Glycine max
Procedure, shortened: as §1

sugar beet = experiment: Test B pre/postemergence sugar beet; assay type: in vivo, Beta vulgaris
Procedure, shortened: as §1

wild oat = experiment: Test B pre/postemergence wild oat; assay type: in vivo, Avena fatua
Procedure, shortened: as §1

purple nutsedge = experiment: Test B pre/postemergence purple nutsedge; assay type: in vivo, Cyperus rotundus
Procedure, shortened: as §1

rice = experiment: Test B flood test rice; assay type: in vivo, Oryza sativa
Procedure, shortened: (§2)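 Flood test on plants grown to the 2-leaf stage; treated plants kept in greenhouse twelve to sixteen days, then visually rated against controls on a 0 (no effect) to 10 (complete control) scale.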

smallflower flatsedge = experiment: Test B flood test smallflower flatsedge; assay type: in vivo, Cyperus difformis
Procedure, shortened: as §2

duck salad = experiment: Test B flood test duck salad; assay type: in vivo, Heteranthera limosa
Procedure, shortened: as §2

[1] = Postemergence, Rate 125 g/ha, scale of 0 to 10 where 0 is no effect and 10 is complete control
[2] = Preemergence, Rate 62 g/ha, scale of 0 to 10 where 0 is no effect and 10 is complete control
[3] = Preemergence, Rate 125 g/ha, 0 is no effect, 10 is complete control
[4] = Preemergence, Rate 250 g/ha, scale 0 to 10, 0 is no effect, 10 is complete control
[5] = Preemergence, Rate 500 g/ha, scale 0 to 10 (0 no effect, 10 complete control)
[6] = Rate 62 g/ha, Postemergence, scale of 0 to 10 where 0 is no effect and 10 is complete control
[7] = Rate 250 g/ha, Postemergence, scale 0 to 10, 0 is no effect, 10 is complete control
[8] = Rate 500 g/ha, Postemergence, scale 0 to 10
[9] = Rate 62 g/ha, headed Pre-emergence (flood test species), scale 0 to 10 (0 no effect, 10 complete control)
[10] = Rate 125 g/ha, Pre-emergence, flood test species, scale 0 to 10 where 0 is no effect and 10 is complete control
[11] = Rate 250 g/ha, Pre-emergence, flood-test species, scale 0 to 10, 0 is no effect, 10 is complete control
[12] = Rate 500 g/ha, headed Pre-emergence (flood test species), scale 0 to 10 (0 no effect, 10 complete control)

CC(C)N(Cc1ccccc1)C(=O)n1oc(=O)n(C(C)C)c1=O [Compound 165]
9: Plant response rating, Crabgrass (crabgrass; [7]) | Crabgrass plant response rating (crabgrass; [8]) | Giant foxtail plant response rating (giant foxtail; [5])
1: Bedstraw plant response rating (0 to 10 scale) (bedstraw; [3]) | B. signalgrass plant response rating (surinam grass; [1]) | Giant foxtail plant response rating (giant foxtail; [1]) | Redroot pigweed plant response rating (pigweed; [5])
8: Bedstraw plant response rating (bedstraw; [8]) | Blackgrass plant response rating (blackgrass; [5]) | Blackgrass plant response rating (blackgrass; [8]) | B. signalgrass plant response rating (surinam grass; Rate 500 g/ha, Postemergence, scale 0 to 10, 0 no effect, 10 complete control) | Crabgrass plant response rating (crabgrass; [4]) | Crabgrass plant response rating (crabgrass; [5]) | Giant foxtail plant response rating (giant foxtail; [4]) | Giant foxtail plant response rating (giant foxtail; [8])
2: Crabgrass plant response rating (crabgrass; [6]) | Redroot pigweed plant response rating (pigweed; [1]) | Soybean plant response rating (soybean; [6])
7: Plant response rating, Blackgrass (blackgrass; [7]) | Crabgrass plant response rating (0 to 10 scale) (crabgrass; [3]) | Giant foxtail plant response rating (0 to 10 scale) (giant foxtail; [3])
5: Plant response rating, B. signalgrass (surinam grass; [7]) | Plant response rating, Giant foxtail (giant foxtail; [7])
3: Bedstraw plant response rating (bedstraw; [4]) | Blackgrass plant response rating (blackgrass; [1]) | Blackgrass plant response rating (0 to 10 scale) (blackgrass; [3]) | Plant response rating, Corn (corn; [7]) | Corn plant response rating (corn; [8]) | Morningglory plant response rating (morningglory; [1]) | Morningglory plant response rating (morningglory; [5]) | Morningglory plant response rating (morningglory; [6]) | Plant response rating, Morningglory (morningglory; [7]) | Plant response rating, Sugarbeets (sugar beet; [7]) | Plant response rating, Wild oats (wild oat; [7]) | Wild oats plant response rating (wild oat; [8])
6: Blackgrass plant response rating (blackgrass; [4]) | B. signalgrass plant response rating (surinam grass; [4]) | B. signalgrass plant response rating (surinam grass; [5]) | Giant foxtail plant response rating (giant foxtail; [2]) | Plant response rating, Soybean (soybean; [7]) | Soybean plant response rating (soybean; [8]) | Sugarbeets plant response rating (sugar beet; [8]) | Wild oats plant response rating (wild oat; [5])
0: Bedstraw plant response rating (bedstraw; [1]) | Bedstraw plant response rating (bedstraw; [2]) | Bedstraw plant response rating (bedstraw; [6]) | Blackgrass plant response rating (blackgrass; [2]) | Blackgrass plant response rating (blackgrass; [6]) | B. signalgrass plant response rating (surinam grass; [2]) | B. signalgrass plant response rating (surinam grass; [6]) | Cocklebur plant response rating (cocklebur; [1]) | Cocklebur plant response rating (cocklebur; [2]) | Cocklebur plant response rating (0 to 10 scale) (cocklebur; [3]) | Cocklebur plant response rating (cocklebur; [4]) | Cocklebur plant response rating (cocklebur; [5]) | Cocklebur plant response rating (cocklebur; [6]) | Plant response rating, Cocklebur (cocklebur; [7]) | Cocklebur plant response rating (cocklebur; [8]) | Corn plant response rating (corn; [1]) | Corn plant response rating (corn; [2]) | Corn plant response rating (0 to 10 scale) (corn; [3]) | Corn plant response rating (corn; [4]) | Corn plant response rating (corn; [5]) | Corn plant response rating (corn; [6]) | Giant foxtail plant response rating (giant foxtail; [6]) | Morningglory plant response rating (morningglory; [2]) | Morningglory plant response rating (0 to 10 scale) (morningglory; [3]) | Morningglory plant response rating (morningglory; [4]) | Redroot pigweed plant response rating (pigweed; [2]) | Redroot pigweed plant response rating (0 to 10 scale) (pigweed; [3]) | Redroot pigweed plant response rating (pigweed; [4]) | Redroot pigweed plant response rating (pigweed; [6]) | Soybean plant response rating (soybean; [2]) | Soybean plant response rating (0 to 10 scale) (soybean; [3]) | Soybean plant response rating (soybean; [4]) | Soybean plant response rating (soybean; [5]) | Sugarbeets plant response rating (sugar beet; [1]) | Sugarbeets plant response rating (sugar beet; [2]) | Sugarbeets plant response rating (sugar beet; [6]) | Nutsedge plant response rating (purple nutsedge; [1]) | Nutsedge plant response rating (purple nutsedge; [2]) | Nutsedge plant response rating (0 to 10 scale) (purple nutsedge; [3]) | Nutsedge plant response rating (purple nutsedge; [4]) | Nutsedge plant response rating (purple nutsedge; [5]) | Nutsedge plant response rating (purple nutsedge; [6]) | Plant response rating, Nutsedge (purple nutsedge; [7]) | Nutsedge plant response rating (purple nutsedge; [8]) | Rice plant response rating (rice; [9]) | Rice plant response rating (rice; [10]) | Rice plant response rating (rice; [11]) | Plant response rating, Rice (rice; [12]) | S. Flatsedge plant response rating (smallflower flatsedge; [9]) | S. Flatsedge plant response rating (smallflower flatsedge; [10]) | S. Flatsedge plant response rating (smallflower flatsedge; [11]) | S. Flatsedge plant response rating (smallflower flatsedge; Rate 500 g/ha, Pre-emergence, flood test species, scale 0 to 10 (0 no effect, 10 complete control)) | Ducksalad plant response rating (duck salad; [9]) | Ducksalad plant response rating (duck salad; [10]) | Ducksalad plant response rating (duck salad; [11]) | Plant response rating, Ducksalad (duck salad; [12])
4: Bedstraw plant response rating (bedstraw; [5]) | Plant response rating, Bedstraw (bedstraw; [7]) | B. signalgrass plant response rating (0 to 10 scale) (surinam grass; [3]) | Crabgrass plant response rating (crabgrass; [1]) | Crabgrass plant response rating (crabgrass; [2]) | Morningglory plant response rating (morningglory; [8]) | Plant response rating, Redroot pigweed (pigweed; [7]) | Redroot pigweed plant response rating (pigweed; [8]) | Soybean plant response rating (soybean; [1]) | Sugarbeets plant response rating (0 to 10 scale) (sugar beet; [3]) | Sugarbeets plant response rating (sugar beet; [4]) | Sugarbeets plant response rating (sugar beet; [5]) | Wild oats plant response rating (wild oat; [2]) | Wild oats plant response rating (0 to 10 scale) (wild oat; [3]) | Wild oats plant response rating (wild oat; [4])
